According to EPA's ToxValDB 9.5 (doi:10.2903/j.efsa.2011.1941):

What was measured:
Aphidius rhopalosiphi = conditions: chronic/long-term
Lepomis macrochirus = conditions: acute; duration: 96 hours; mortality
Typhlodromus pyri = conditions: chronic/long-term
Apis mellifera = conditions: acute; duration: 48 hours; dermal; mortality
Pimephales promelas = conditions: chronic/long-term; duration: 36 days; growth
Daphnia magna = conditions: chronic/long-term; duration: 21 days; reproduction

## Nc1ccc(OC(F)(F)F)cc1 [4-Trifluoromethoxyaniline]
Rattus norvegicus; short-term, duration: 6 days
  NOAEL: 0.5 mg/kg-day

## O=C(NC(=O)c1ccccc1Cl)Nc1ccc(OC(F)(F)F)cc1 [Triflumuron]
Aphidius rhopalosiphi; mortality
  LEL: 300 g/ha
Aphidius rhopalosiphi; reproduction
  LEL: 300 g/ha
Tagia sp.; acute, duration: 14 days, mortality
  LC50: > 500 mg/kg
Tagia sp.; chronic/long-term, duration: 56 days, reproduction
  NOEC: > 378 mg/kg
Lepomis macrochirus
  LC50: > 0.0208 µg/mL
Typhlodromus pyri; duration: 7 days, mortality
  LEL: 384 g/ha
Typhlodromus pyri; reproduction
  LEL: 384 g/ha
Anas platyrhynchos; reproductive
  NOEC: 6.9 mg/kg-day
Anas platyrhynchos; short-term, oral, feed, mortality
  LC50: 180 mg/kg-day
Apis mellifera
  LD50: > 200 µg/piece
Colinus virginianus; acute, oral, diet, mortality
  LC50: > 805 mg/kg-day
Colinus virginianus; acute, oral, mortality
  LD50: 561 mg/kg-day
Colinus virginianus; reproduction developmental
  NOEC: 1.65 mg/kg-day
Pimephales promelas
  NOEC: ≥ 0.0228 mg/L
Daphnia magna
  NOEC: 3.2e-05 mg/L
Rattus norvegicus; acute, oral, mortality
  LD50: > 5000 mg/kg-day
Rattus norvegicus; chronic
  NOEL: 142 mg/kg-day
Rattus norvegicus; chronic, duration: 2 years, hematological
  NOAEL: 0.82 mg/kg-day
Rattus norvegicus; subchronic, duration: 90 days, oral, hematological
  NOAEL: 3.6 mg/kg-day
